# Assay results: ChEMBL document CHEMBL1139428, “Cocrystal structures of primed side-extending alpha-ketoamide inhibitors reveal novel calpain-inhibitor aromatic interactions” (J Med Chem, 2008)
# The source made the active and inactive calls. The calls are words filed in the database; no cut-off is given here.
# Assays:
# [1] = target: T1, Calpain-1 catalytic subunit (Homo sapiens) (UniProt P07384); assay: Inhibition of calpain 1 protease core assessed as attenuation of substrate cleavage at 50 uM by FRET
# T1 sequence (whole entry): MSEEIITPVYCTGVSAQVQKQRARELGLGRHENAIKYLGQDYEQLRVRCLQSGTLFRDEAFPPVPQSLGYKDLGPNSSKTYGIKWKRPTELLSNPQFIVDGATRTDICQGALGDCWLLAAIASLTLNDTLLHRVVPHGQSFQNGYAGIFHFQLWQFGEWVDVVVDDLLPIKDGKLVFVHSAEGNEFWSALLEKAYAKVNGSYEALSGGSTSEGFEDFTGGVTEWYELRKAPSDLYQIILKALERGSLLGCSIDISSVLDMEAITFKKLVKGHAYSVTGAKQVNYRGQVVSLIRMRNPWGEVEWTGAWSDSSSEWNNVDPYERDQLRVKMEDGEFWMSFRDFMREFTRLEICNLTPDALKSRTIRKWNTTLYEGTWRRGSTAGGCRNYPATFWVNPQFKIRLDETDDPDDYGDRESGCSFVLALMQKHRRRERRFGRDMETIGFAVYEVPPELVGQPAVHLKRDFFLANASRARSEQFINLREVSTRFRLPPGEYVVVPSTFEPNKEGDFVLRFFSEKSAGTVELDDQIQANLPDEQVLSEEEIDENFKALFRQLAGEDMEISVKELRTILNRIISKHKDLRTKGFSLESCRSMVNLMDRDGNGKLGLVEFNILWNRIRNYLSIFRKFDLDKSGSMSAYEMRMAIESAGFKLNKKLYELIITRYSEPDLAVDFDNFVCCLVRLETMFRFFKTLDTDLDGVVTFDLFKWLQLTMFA
# [2] = target: T2, Calpain-2 catalytic subunit (Homo sapiens) (UniProt P17655); assay: Inhibition of m-calpain assessed as attenuation of substrate cleavage at 1 uM by FRET
# T2 sequence (whole entry): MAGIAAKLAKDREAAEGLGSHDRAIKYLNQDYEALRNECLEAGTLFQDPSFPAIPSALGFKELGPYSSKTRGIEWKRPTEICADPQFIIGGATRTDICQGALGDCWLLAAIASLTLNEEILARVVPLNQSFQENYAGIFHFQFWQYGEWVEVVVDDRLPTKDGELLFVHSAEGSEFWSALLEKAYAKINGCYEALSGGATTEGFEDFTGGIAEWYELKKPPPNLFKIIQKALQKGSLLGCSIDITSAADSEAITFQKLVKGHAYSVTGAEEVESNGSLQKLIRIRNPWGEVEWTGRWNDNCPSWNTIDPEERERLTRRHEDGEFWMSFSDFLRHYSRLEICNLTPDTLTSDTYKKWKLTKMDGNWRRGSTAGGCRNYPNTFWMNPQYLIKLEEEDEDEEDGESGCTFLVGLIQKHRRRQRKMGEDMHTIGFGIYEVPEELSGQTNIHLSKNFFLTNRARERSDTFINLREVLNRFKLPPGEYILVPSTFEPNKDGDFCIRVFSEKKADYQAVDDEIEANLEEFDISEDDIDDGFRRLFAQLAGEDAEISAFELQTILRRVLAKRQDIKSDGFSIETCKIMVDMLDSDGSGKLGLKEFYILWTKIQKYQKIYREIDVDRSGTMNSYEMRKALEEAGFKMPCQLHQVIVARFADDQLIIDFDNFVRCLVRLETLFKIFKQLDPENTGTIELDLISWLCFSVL
Activity [1],Activity [2],Compound
Active,Active,CC[C@H](NC(=O)[C@H](CC(C)C)NC(=O)OCc1ccccc1)C(=O)C(=O)NCCCN1CCN(C)CC1
Active,Active,CC[C@H](NC(=O)[C@H](CC(C)C)NC(=O)OCc1ccccc1)C(=O)C(=O)NCCCn1cnc2c(N)ncnc21
